From patent US20130224754A1, “METHOD FOR THE SELECTION OF COMPOUNDS USEFUL FOR THE TREATMENT OF PSYCHIATRIC AND NEURODEGENERATIVE DISEASES” (UNIVERSITA' DEGLI STUDI DI TRIESTE, priority 2010, published 2013) come the findings set out here.

The test system of assay [1] is BDNF 5′UTR splice variants. Nature of the assay: Dual luciferase assay, response of BDNF 5′UTR splice variants to agonists (collective statements). The following applies: undifferentiated SH-SY5Y; for translation of the other BDNF transcripts (other than exon2C): DHPG 50 μM, AMPA 30 μM, NMDA 30 μM.
Method: (§3) Plasmids were transfected into SH-SY5Y cells using lipofectamine 2000 (Invitrogen) to obtain a transient transfection. The relative quantity of DNA to lipofectamine has been determined and the optimal ratio was found at 0.2 μg of DNA and 0.5 μl of lipofectamine for each well of a 96 multiwell plate. At the time of transfection SH-SY5Y cells were around 70-75% of confluency. According to the Promega protocol for luciferase activity measurements, each construct-containing Fluc was transfected together with the normalizing Rluc construct with a 10:1 ratio (0.2 μg Fluc containing vector together with 0.02 μg of pN1-Rluc vector). The DNA (0.2 μg) was mixed with 25 μl of native MEM medium and incubated for 5 minutes at room temperature. The two solutions were then mixed and incubated for 20 minutes at room temperature to allow the formation of DNA-containing micelles. Then, 50 μl of such solution were added in each well to cells and incubated for 24 h at 37° C. After 24 h transfection, the medium was removed and replaced with fresh culture medium.
(§4) To determine the effects of receptors activation on translation controlled by the different BDNF 5′UTR sequences, cells were treated for 3 hours with 50 mM KCl to induce generalized cell depolarization.
(§5) Luciferase assay was performed according to the manufacturer's instructions (Promega). At the time of luciferase assay, the growth medium was removed from the cultured cells and a sufficient volume of PBS 1× was applied to wash the surface of the culture vessel. Then, the PBS 1× solution was completely removed and the cells lysis was started by adding 20 μl of PLB (passive lysis buffer) into each well. After adding the PLB solution, the culture plate was placed on an orbital shaker with gentle shaking at room temperature for 15 minutes to cover uniformly the cell monolayer with PLB. After lysis, 100 μl of Luciferase Assay Reagent II (LARII) were dispensed in each well and Firefly luciferase activity was measured using the Glo Max Multi luminometer with two injectors (Promega Corporation).
(§6) After quantifying the Firefly luminescence, this reaction was quenched and simultaneously, the Renilla luciferase reaction was initiated by adding 100 μl Stop & Glo Reagent (Promega) to the same well. Then, Renilla luciferase activity was measured using the Glo Max Multi luminometer with two injectors (Promega Corporation).
(§7) One day prior transfection, undifferentiated neuro-blastoma SH-SY5Y cells were seeded into a 96-well white plate with clear bottom (PBI International) at a confluency of 50-60% and cultured overnight. Plasmids containing the different BDNF 5′UTR exons were then transiently transfected into SH-SY5Y cells using Lipofectamine™ 2000 (Invitrogen) at high cell density (70-75%), according to the manufacturer's protocol. […]
For assay [2], the system named is pN1-exon6-Fluc-3′UTR long construct. Nature of the assay: Inhibition of KCl-induced translation of the ex6-Fluc-3′UTRlong construct. Type of assay: cell-based, rat. The following applies: for prevention of KCl-induced increase in translation of pN1-exon6-Fluc-3′UTR long: 30 min pre-treatment prior 3 h 20 mM KCl, rapamycin 20 nM, U0126 50 μM, KN62 20 μM, GF 50 nM, Aurora A inhibitor 10 μM, PP2 20 μM. The text has this:
The present invention can be used not only to identify compounds able to increase BDNF translation, but also to screen for potential inhibitors of BDNF protein production. To this aim a series of vectors were constructed which recapitulate the physiological regulation of BDNF translation in that the firefly luciferase gene was flanked both by 5′UTR regions as well as 3′UTR. These constructs included:
Inhibitors of 5′UTR regulation are: rapamycin (rap)=mTOR inhibitor (Takei, Inamura et al. 2004); U0126=MEK inhibitor (Kanhema, Dagestad et al. 2006); GF=PKC inhibitor (Heikkila, Jalava et al. 1993).
Inhibitors of 3′UTR regulation: KN62=CaMKII inhibitor (Lu, Hidaka et al. 1996); AuA=Aurora A inhibitor (Soncini, Carpinelli et al. 2006) and PP2=Src tyrosine kinase inhibitor (Perkinton, Sihra et al. 1999).
Aurora kinase A inhibitor (PHA-680632) was a gift from Nerviano Medical Sciences S.r.l. (Milan, Italy); PP2 (1-tert-butyl-3-(4-chlorophenyl)-1H-pyrazolo[3-4]pyrimidin-4-amine), rapamycin was purchased from Ascent Scientific (Bristol, UK), Bisindolylmaleimide I (2-[1-(3-dimethylaminopropyl)-1H-indol-3-yl]-3-(1H-indol-3yl)-maleimide, GF 109203X, Gö 6850), KN62 (1-[N,O-bis-5-isoquinolinesulfonyl)-N-methyl-L-tyrosyl]-4-phenylpiperazine), U0126 (1,4-diamino-2,3-dicyano-1,4-bis(2-aminophenylthio)butadiene), and U0124 (1,4-Diamino-2,3-dicyano-1,4-bis(methylthio)butadiene) from Calbiochem (Damstadt, Germany).
Relative luciferase units (RLU) describe in absolute values for the Fluc/Rluc (F/R) ratio obtained from each condition—basal, 3 h of 20 mM KCl, 30 min of treatment—rapamycin 20 nM, U0126 50 μM, KN62 20 μM, GF 50 nM, Aurora A inhibitor 10 μM or PP2 20 μM, prior 3 h of depolarization. A value of 1.0 was assumed for the basal condition. The represented data (mean+standard error) corresponds to three independent experiments in quadruplicate ***, P<0.001; **, P<0.01; *, P<0.05, One Way Anova followed by a multiple comparison versus Fluc construct procedure with Holm-Sidak's method.

Assay [3] deals with SH-SY5Y human neuroblastoma cells. Nature of the assay: MTT viability assay. Type of assay: cell-based. The following applies: 3 h; ACh 10 μM, NE 50 uM, DOPA 40 μM, BDNF and NT3 both 50 ng/ml. Here is the method:
Using a 96-well plate 100 μl of SHSY-5Y cells were distributed per well, maintaining them overnight at 37° C. in a 5% CO2-humified incubator. […] After that, 20 μl of aseptically prepared 5 mg/mL MTT was added, adding it also to an additional quadruplicate of wells without cells, as an internal control. The cells were again incubated at 37° C. this time for 2 h, allowing the formation of formazan crystals by the mitochondrial dehydrogenase of viable cells. Afterwards, the media was carefully removed, and the formazan crystals were solubilised by adding 200 μl of MTT solvent per well, a solution that contains acidified isopropanol (4 mM HCl and 0.1% Nondet P-40 in isopropanol). The crystals were further dissolved by gently pipetting the solution up and down being the resulting purple solution spectrophotometrically measured at 570 nm. An increased absorbance can therefore be directly correlated to the cell number, allowing one to determine the cellular viability after a specific treatment. Since the method is dependent on the physiological state of the cells, the assay was always performed after checking the cellular morphology prior treatment. Moreover, two controls were performed: (1) untreated cells, an internal control to verify the drug-dependent effect; and (2) KCl 200 mM treated cells, in which a cytotoxic concentration was used, thus allowing us to verify the assay fidelity.

Another assay relates to rat BDNF 5′UTR exon 1. Nature of the assay: Dual luciferase assay, pN1-exon1-Fluc in SH-SY5Y cells. The class given is cell-based. The following applies: undifferentiated SH-SY5Y, 24 h after transfection; KCL 50 mM, BDNF 50 ng/ml, GLU 20 μM, NE 50 μM.
Another assay relates to rat BDNF 5′UTR exon 2B. Nature of the assay: Dual luciferase assay, pN1-exon2B-Fluc in SH-SY5Y cells. Type of assay: cell-based. The following applies: undifferentiated SH-SY5Y, 24 h after transfection; KCL 50 mM, BDNF 50 ng/ml, GLU 20 μM, NE 50 μM.
The next assay relates to rat BDNF 5′UTR exon 2C. Nature of the assay: Dual luciferase assay, pN1-exon2C-Fluc in SH-SY5Y cells. The class given is cell-based. The following applies: undifferentiated SH-SY5Y; GLU 20 μM, NMDA 30 μM, NE 50 μM.
The subject of another assay is rat BDNF 5′UTR exon 4. Nature of the assay: Dual luciferase assay, pN1-exon4-Fluc in SH-SY5Y cells. Type of assay: cell-based. The following applies: undifferentiated SH-SY5Y; KCL 50 mM, BDNF 50 ng/ml, GLU 20 μM, NE 50 μM, 5-HT 50 μM.
A further assay relates to rat BDNF 5′UTR exon 8. Nature of the assay: Dual luciferase assay, pN1-exon8-Fluc in SH-SY5Y cells. Type of assay: cell-based. The following applies: undifferentiated SH-SY5Y; BDNF 50 ng/ml, GLU 20 μM, 5-HT 50 μM.
The test system of a further assay is BDNF 3′UTR-short. Nature of the assay: Luciferase assay, pN1-Fluc-3′short in SH-SY5Y cells. The following applies: transfected SHSY-5Y; GLU 20 μM. Type of assay: cell-based, rat. Here is the method: (§1) Basal and drug-induced translation of a luciferase reporter gene driven by BDNF short and long 3′UTR or coding region (CDS) sequences were measured.
(§2) BDNF ([…]) was specifically employed for the stimulation of the 3′UTR long containing plasmid and NT3 ([…]) for 3′UTR short containing plasmid.

In the next assay the test system is rat BDNF 5′UTR exon 3. The assay is described as follows: Dual luciferase assay, pN1-exon3-Fluc in SH-SY5Y cells. Type of assay: cell-based. The following applies: undifferentiated SH-SY5Y; KCL 50 mM.
The next assay concerns BDNF 3′UTR-long. Nature of the assay: Luciferase assay, pN1-Fluc-3′long in SH-SY5Y cells. The following applies: transfected SHSY-5Y; KCl 50 mM, GLU 20 μM, DHPG 50 μM, AMPA 30 μM, NMDA 30 μM, AcH 30 μM, NE 50 μM, DOPA 40 μM, 5-HT 50 μM, BDNF 50 ng/μl. Type of assay: cell-based, rat. How it is done:
as §1, §2

For the next assay, the system named is rat BDNF 5′UTR exon 7. The assay is described as follows: Dual luciferase assay, pN1-exon7-Fluc in SH-SY5Y cells. The following applies: undifferentiated SH-SY5Y; NE 50 μM. The class given is cell-based.

Method for rat BDNF 5′UTR exon 1: as §3, §4, §5, §6, §7
Method for rat BDNF 5′UTR exon 2B: as §3, §4, §5, §6, §7
Method for rat BDNF 5′UTR exon 2C: as §3, §4
Luciferase assay was performed according to the manufacturer's instructions (Promega). At the time of luciferase assay, the growth medium was removed from the cultured cells and a sufficient volume of PBS 1× was applied to wash the surface of the culture vessel. […] After lysis, 100 μl of Luciferase Assay Reagent II (LARII) were dispensed in each well and Firefly luciferase activity was measured using the Glo Max Multi luminometer with two injectors (Promega Corporation).
(§8) After quantifying the Firefly luminescence, this reaction was quenched and simultaneously, the Renilla luciferase reaction was initiated by adding 100 μl Stop & Glo Reagent (Promega) to the same well. Then, Renilla luciferase activity was measured using the Glo Max Multi luminometer with two injectors (Promega Corporation). […]
Method for rat BDNF 5′UTR exon 3: (§9) Plasmids were transfected into SH-SY5Y cells using lipofectamine 2000 (Invitrogen) to obtain a transient transfection. The relative quantity of DNA to lipofectamine has been determined and the optimal ratio was found at 0.2 μg of DNA and 0.5 μl of lipofectamine for each well of a 96 multiwell plate. At the time of transfection SH-SY5Y cells were around 70-75% of confluency. According to the Promega protocol for luciferase activity measurements, each construct-containing Fluc was transfected together with the normalizing Rluc construct with a 10:1 ratio (0.2 μg Fluc containing vector together with 0.02 μg of pN1-Rluc vector). The DNA (0.2 μg) was mixed with 25 μl of native MEM medium and incubated for 5 minutes at room temperature. […]
(§10) Luciferase assay was performed according to the manufacturer's instructions (Promega). […] After lysis, 100 μl of Luciferase Assay Reagent II (LARII) were dispensed in each well and Firefly luciferase activity was measured using the Glo Max Multi luminometer with two injectors (Promega Corporation).
as §8
Method for rat BDNF 5′UTR exon 4: as §3, §4, §5, §6, §7
Method for rat BDNF 5′UTR exon 7: as §9, §10, §8
Method for rat BDNF 5′UTR exon 8: as §9, §10, §8

For the molecule `Cc1o[nH]c(=O)c1CC(N)C(=O)O` (centres unmarked) [AMPA], in [1], the “translation of the other BDNF transcripts (other than exon2C)” value (shortened to “translation … (other than exon2C)”) is given as “not stimulated”.

For `CCc1cccc(CC)c1NC(=O)N1Cc2n[nH]c(NC(=O)c3ccc(N4CCN(C)CC4)cc3)c2C1` [Aurora A inhibitor, PHA-680632], the “prevention of KCl-induced increase in translation of pN1-exon6-Fluc-3′UTR long” value (shortened to “prevention of KCl-induced increase”) in [2] is “completely prevents”.

For the molecule `N[C@H](C(=O)O)c1cc(O)cc(O)c1` [DHPG], in assay [1], the “translation … (other than exon2C)” value is listed as “not stimulated”.

As for `NCCc1ccc(O)c(O)c1` [Dopamine], in [3], the “cell survival (MTT viability), neurotrophic effect” value (from here on “cell survival (MTT viability)”) is reported as “small increase in cell survival”.

Turning to `CN(C)CCCn1cc(C2=C(c3c[nH]c4ccccc34)C(=O)NC2=O)c2ccccc21` [GF, 2-[1-(3-dimethylaminopropyl)-1H-indol-3-yl]-3-(1H-indol-3yl)-maleimide], the “prevention of KCl-induced increase” value in assay [2] is listed as “not”.

For `N[C@@H](CCC(=O)O)C(=O)O` [Glutamate, Glutammate], in the assay with rat BDNF 5′UTR exon 1, the “translation of exon1-containing transcripts (ratio F-luc/R-Luc)” value is “significantly increase”. Moreover, the “translation of exon 2B-containing transcripts (ratio F-luc/R-Luc)” value with rat BDNF 5′UTR exon 2B was “significantly increase”. Also, in the assay with rat BDNF 5′UTR exon 2C, the “expression of exon 2C containing plasmid (ratio F-luc/R-Luc)” value is “able to induce the expression”. Also, the “translation of exon 4-containing transcripts (ratio F-luc/R-Luc)” value in the assay with rat BDNF 5′UTR exon 4 is recorded as “significantly increase”. Further, in the assay on rat BDNF 5′UTR exon 8, the “response of exon 8-containing plasmid (ratio F-luc/R-Luc)” value is reported as “responsive”. Further, the “translation of 3′UTR-short-containing transcripts” value in the assay with BDNF 3′UTR-short is recorded as “striking increase”.

`[Cl-].[K+]` [KCl]: the “translation of exon1-containing transcripts (ratio F-luc/R-Luc)” value in the assay with rat BDNF 5′UTR exon 1 was “significantly increase”. Besides, in the assay with rat BDNF 5′UTR exon 2B, the “translation of exon 2B-containing transcripts (ratio F-luc/R-Luc)” value was “significantly increase”. The “expression of exon 3-containing plasmid (ratio F-luc/R-Luc)” value in the assay with rat BDNF 5′UTR exon 3 is listed as “induced”. The “translation of exon 4-containing transcripts (ratio F-luc/R-Luc)” value in the assay with rat BDNF 5′UTR exon 4 is “significantly increase”. Also, the “translation of 3′UTR-long-containing transcripts” value in the assay on BDNF 3′UTR-long is recorded as “slightly but not significant increase”. For the same molecule, the “increase in translation of pN1-exon6-Fluc-3′UTR long (Fluc/Rluc ratio, basal = 1.0)” value in assay [2] (end of 3 h depolarization with 20 mM KCl) is listed as “three-fold increase”.

For the molecule `CN([C@@H](Cc1ccc(OS(=O)(=O)c2cccc3cnccc23)cc1)C(=O)N1CCN(c2ccccc2)CC1)S(=O)(=O)c1cccc2cnccc12` [KN62], in assay [2], the “prevention of KCl-induced increase” value is on record as “completely prevents”.

Regarding `CN[C@H](CC(=O)O)C(=O)O` [NMDA], the “expression of exon 2C containing plasmid (ratio F-luc/R-Luc)” value with rat BDNF 5′UTR exon 2C is recorded as “enhancement”. Moreover, the “translation … (other than exon2C)” value in assay [1] is “not stimulated”.

Consider `NC[C@H](O)c1ccc(O)c(O)c1` [Norepinephrine], for which the “translation of exon1-containing transcripts (ratio F-luc/R-Luc)” value with rat BDNF 5′UTR exon 1 is recorded as “significantly increase”. Further, the “translation of exon 2B-containing transcripts (ratio F-luc/R-Luc)” value in the assay with rat BDNF 5′UTR exon 2B is recorded as “significantly increase”. Further, the “expression of exon 2C containing plasmid (ratio F-luc/R-Luc)” value in the assay on rat BDNF 5′UTR exon 2C is “increased”. In the assay on rat BDNF 5′UTR exon 4, the “translation of exon 4-containing transcripts (ratio F-luc/R-Luc)” value was “significantly increase”. In the assay with rat BDNF 5′UTR exon 7, the “exon7 reporter expression (ratio F-luc/R-Luc)” value is reported as “increased”. In addition, the “cell survival (MTT viability)” value in [3] is “small increase in cell survival”.

With `CC(C)(C)n1nc(-c2ccc(Cl)cc2)c2c(N)ncnc21` [PP2, 1-tert-butyl-3-(4-chlorophenyl)-1H-pyrazolo[3-4]pyrimidin-4-amine], the “prevention of KCl-induced increase” value in assay [2] is listed as “completely prevents”.

`NCCc1c[nH]c2ccc(O)cc12` [Serotonin]: the “translation of every BDNF exons-containing plasmid, with the exception of those containing exon 2A, 4 and 8” value in [1] (5-HT 50 μM) is listed as “able to increase the translation”.

Turning to `N#CC(=C(N)Sc1ccccc1N)C(C#N)=C(N)Sc1ccccc1N` [U0126, 1,4-diamino-2,3-dicyano-1,4-bis(2-aminophenylthio)butadiene], the “prevention of KCl-induced increase” value in assay [2] was “completely prevents”.

B1: Brain-derived neurotrophic factor (protein, UniProt P23560 19-247, looked up)
Neurotrophic factor BDNF …: APMKEANIRGQGGLAYPGVRTHGTLESVNGPKAGSRGLTSLADTFEHVIEELLDEDQKVRPNEENNKDADLYTSRVMLSSQVPLEPPLLFLLEEYKNYLDAANMSMRVRRHSDPARRGELSVCDSISEWVTAADKKTAVDMSGGTVTVLEKVPVSKGQLKQYFYETKCNPMGYTKEGCRGIDKRHWNSQCRTTQSYVRALTMDSKKRIGWRFIRIDTSCVCTLTIKRGR
notes: growth and trophic factor of the neurotrophin family, used as agonist at 50 ng/ml
Consider B1, for which, in the assay with rat BDNF 5′UTR exon 1, the “translation of exon1-containing transcripts (ratio F-luc/R-Luc)” value is recorded as “significantly increase”. Also, the “translation of exon 2B-containing transcripts (ratio F-luc/R-Luc)” value with rat BDNF 5′UTR exon 2B is “significantly increase”. For the same molecule, the “translation of exon 4-containing transcripts (ratio F-luc/R-Luc)” value in the assay on rat BDNF 5′UTR exon 4 is “significantly increase”. In addition, in the assay on rat BDNF 5′UTR exon 8, the “response of exon 8-containing plasmid (ratio F-luc/R-Luc)” value was “responsive”. The “cell survival (MTT viability)” value in [3] is reported as “small increase in cell survival”.

B2: Neurotrophin-3 (protein, UniProt P20783 139-257, looked up)
Neurotrophin-3: YAEHKSHRGEYSVCDSESLWVTDKSSAIDIRGHQVTVLGEIKTGNSPVKQYFYETRCKEARPVKNGCRGIDDKHWNSQCKTSQTYVRALTSENNKLVGWRWIRIDTSCVCALSRKIGRT
notes: neurotrophin, used at 50 ng/ml
As to B2, the “cell survival (MTT viability)” value in [3] was “small increase in cell survival”.
